Measurements taken from the NIST ThermoML archive (doi:10.1016/j.jct.2018.01.025).
Where “and” joins values, the source holds several entries; their conditions need not be identical. Equal entries are not always repeated.

Settings: 101.33 kPa, Liquid; for mass density: Vibrating tube method

CCOS(=O)(=O)[O-].CCn1cc[n+](C)c1 [1-ethyl-3-methylimidazolium ethyl sulfate]
Settings	viscosity
278.15 K, Concentric cylinders viscometry	329 mPa·s
283.15 K, Concentric cylinders viscometry	234.5 mPa·s
288.15 K, Concentric cylinders viscometry	172.2 mPa·s
293.15 K, Concentric cylinders viscometry	130.1 mPa·s
298.15 K, Concentric cylinders viscometry	100 mPa·s
298.52 K, Vibrating wire viscometry	97.32 mPa·s and 98.21 mPa·s
303.15 K, Concentric cylinders viscometry	78.66 mPa·s
303.34 K, Vibrating wire viscometry	76.57 mPa·s
303.38 K, Vibrating wire viscometry	76.99 mPa·s
303.64 K, Vibrating wire viscometry	76.57 mPa·s
308.15 K, Concentric cylinders viscometry	62.99 mPa·s
308.21 K, Vibrating wire viscometry	61.5 mPa·s
313.15 K, Concentric cylinders viscometry	51.59 mPa·s
313.23 K, Vibrating wire viscometry	51.09 mPa·s
313.24 K, Vibrating wire viscometry	50.47 mPa·s
318.15 K, Concentric cylinders viscometry	42.36 mPa·s
318.43 K, Vibrating wire viscometry	41.55 mPa·s
322.6 K, Vibrating wire viscometry	36.51 mPa·s
323.02 K, Vibrating wire viscometry	35.9 mPa·s
323.15 K, Concentric cylinders viscometry	35.43 mPa·s
328.15 K, Concentric cylinders viscometry	29.98 mPa·s
333.15 K, Concentric cylinders viscometry	25.64 mPa·s
338.15 K, Concentric cylinders viscometry	22.13 mPa·s
343.15 K, Concentric cylinders viscometry	19.27 mPa·s
348.15 K, Concentric cylinders viscometry	16.91 mPa·s
353.15 K, Concentric cylinders viscometry	15.03 mPa·s
358.15 K, Concentric cylinders viscometry	13.3 mPa·s
363.15 K, Concentric cylinders viscometry	11.9 mPa·s
368.15 K, Concentric cylinders viscometry	10.71 mPa·s
373.15 K, Concentric cylinders viscometry	9.69 mPa·s

Settings	mass density [kg/m3]
278.15 K	1251.2
283.15 K	1247.3
288.15 K	1243.7
293.15 K	1240.1
298.15 K	1236.7
303.15 K	1233.3
308.15 K	1229.9
313.15 K	1226.5
318.15 K	1223.2
323.15 K	1219.9
328.15 K	1216.6
333.15 K	1213.4
338.15 K	1210.2
343.15 K	1206.9
348.15 K	1203.6
353.15 K	1200.1
358.15 K	1196.6
363.15 K	1193.4
368.15 K	1190.5
373.15 K	1187.4
